Laboratory results as given in publication PMC9256669, “Monomethyl auristatin antibody and peptide drug conjugates for trimodal cancer chemo-radio-immunotherapy” (Nature Communications, 2022).
Several values for one entry are separate records, joined by “and”; a condition that tells them apart may be missing. Identical values can stand only once. Like-named read-outs stand apart in the source and are kept apart here.

Columns and labels:
MC38 tumors = conditions: status at the day printed in the same line, one line per mouse
Description: MOC1, B16, LL/2, and MC38 tumor cells were injected subcutaneously into the hindlimbs of 6-week-old female C57BL/6 albino mice in 100 µl of 1:1 Matrigel (BD) and PBS solution. Fractionated IR was delivered focally to the tumor-bearing hindlimbs (3 Gy to MC38 tumors and 5 Gy to LL/2 and B16 tumors) as indicated in figure legends using a PXI X-RAD 225 XL irradiator at maximal dose rate of 3 Gy/min with a beam-conditioning aluminum filter (Precision X-ray Irradiation). For RAG1 KO studies, 6-week-old female Rag1^tm1Mom mice were injected subcutaneously with tumor cells in their hindlimbs (Jackson Labs). For CD8 depletion studies, mice were i.p. injected with anti-CD8 (BioXCell #BE0117) at 10 mg/kg on days −6, −5 and −4 tumor cell implant and then weekly starting on day after tumor cells were injected or control antibody. […] Tumor volumes were measured and calculated using the formula as ½ * length * width^2. Mice were sacrificed when tumor volume reached >1500 mm^3, maximal tumor volume approved on our protocol for subcutaneous tumors.

[1] = tested on: CAL27 resistant (PIK3CA H1047R) tumors; test: Orthotopic tongue tumor xenograft therapy; assay type: in vivo, human cells in NOD SCID mice; conditions: PIK3CA H1047R-expressing CAL27 orthotopic tongue tumors
Excerpt: (§1) Orthotopic tongue xenograft tumors were established in 6-week-old NOD SCID mice by injecting 150,000 CAL27 parental (WT) or PIK3CA H1047R-expressing cells. […] On the last day of tumor xenograft measurements, mice were euthanized, tongues resected, imaged, and fixed. […] IR was delivered as 2 parallel opposed fields. […]
(§2) Tumor cells Ab/ADC Ab/ADC CDX3379-MMAE
(§3) Supplementary Figure 7: CDX3379-MMAE ADC efficacy in tumor xenografts.
(§4) CAL27 parental (WT) or HER3 resistant (PIK3CA H1047R) tumor xenografts established in murine tongues on day 0. a) On day 7, mice i.v. injected with 2.5 nmoles […]
(§5) On the last day of tumor measurement
(§6) (day 16 for WT, day 14 for PIK3CA H1047R tumors), tongues resected, fixed and sectioned. Tissues stained for Ki-67 (Abcam, ab16667) by IHC and counterstained with hematoxylin. Data is representative of 6 independent tumors per tumor cell line and treatment. b) Mice with orthotopic tongue CAL27 PIK3CA H1047R tumors were […]
(§7) MMAE ADC on day 6 and day 8 (n= 6 tumors/group). On the last day of tumor measurements, tongues were resected, fixed, longitudinally sectioned and H&E stained.
(§8) Source data are provided in Source Data file.
(§9) (also on this page, place not known: CAL27-WT CAL27-Resistant UntreatedCDX3379CDX3379 -MMAE 07142128 volume (mm3) Tumor tipTongue a)On i.v.injected)

[2] = tested on: CAL27 parental (WT) tumors; test: Orthotopic tongue tumor xenograft therapy; assay type: in vivo, human cells in NOD SCID mice; conditions: single 2.5 nmole injection
Excerpt: as §1, §2, §3, §4, §5, §6, §7, §8, §9

MOC2 tumors = test: Orthotopic tumor CyTOF analysis of immune infiltrate; assay type: in vivo, C57BL/6 mice; set-up: Immune cell quantification: M2 / CyTOF cell quantification, Immune cell quantification: CD4+ / CyTOF cell quantification, Immune cell quantification: M1 / CyTOF cell quantification, Immune cell quantification: M-MDSC / CyTOF cell quantification, Immune cell quantification: PMN-MDSC / CyTOF cell quantification, Immune cell quantification: Eosinophils / CyTOF cell quantification, Immune cell quantification: B cells: unit not given here
Description: 6-week-old C57BL/6 female mice were implanted with 50,000 MOC2 cells into the tongue. […] […] Tissues were incubated for 15 min at 37 °C and mechanically digested using the gentle MACs Octo Dissociator. Digested samples were then passed through a 100-µm strainer to acquire a single-cell. For viability staining, cells were washed in PBS and stained with Cell-ID Cisplatin (DVS Sciences) to a final concentration of 5 μM for 5 min at room temperature. Cisplatin was quenched when cells were washed and stained with the antibody cocktail. Antibodies were prepared in Maxpar cell staining buffer (PBS with 2 mM EDTA, 0.1% BSA, 0.05% NaN3) and incubated with cells for 15 min at room temperature. […] Antibodies (clone in parenthesis) used for CyTOF included B220 (RA3-6B2), CD117(2B8), CD11c (N418), CD25 (3C7), CD4 (RM4-5), CD45 (30-F11), CD8a (53-6.7), MHC-II (M5/114.15.2), NKP46 (29A1.4), TCRb (H57-597) from Fluidigm. Antibodies CD103 (2E7), CD115 (AFS98), CD11b (M1/70), CD19 (6D5), CD23 (B3B4), CD3 (145-2C11), CD64 (X54-5/7.1), F4/80 (BM8), FCeRI (Mar-1), FR4 (TH6), Ly6C (HK1.4), Ly6G (1A8), NK1.1 (PK136) from BioLegend and antibody Siglec-F (1RNM44N) from ebioscience. All antibodies were validated by the supplier and used at a 1:100 dilution. Cells were washed with staining buffer and pelleted. Before acquiring, cells were resuspended in 0.1× dilution of EQ Four Element Calibration beads (Fluidigm) and filtered through a 35 μm nylon mesh filter. Cells were acquired on a Helios CyTOF Mass Cytometer (Fluidigm) at an event rate of 200 events/s or less. Data was normalized using Matlab-based normalization software based on the EQ bead-removal. Prior to analysis, samples were subsampled to the lowest number of events and all counts were normalized to the same number of total events, 2324. To detect clusters of cells with a similar expression of surface markers in CyTOF, single cells were gated and clustered using unsupervised dimensionality reduction algorithm optimal t-Distributed Stochastic Neighbor Embedding (opt-SNE) algorithm in OMIQ data analysis software (www.omiq.ai) (530 iterations, Perplexity 30, and Theta 0.5)[51].
Supplementary Figure 8: CyTOF analysis of tumor immune infiltrates. a)
populations identified with opt-SNE. b) MOC2 murine tumors orthotopically implanted
Tumors harvested on day 11, analyzed by CyTOF,
provided in Source Data file.

cyclo(RGD)fc-MC-HN-peg8-e9-oPLGC(Me)AG-r9-c-(MC-VC-PABC-MMAE)-CONH2 [ACPP-MMAE]
Mouse survival, status (MC38 tumors; ACPP-MMAE + IR + αPD1): 1 and 0
Mouse survival, status (MC38 tumors; ACPP-MMAE + IR): 1

CDX3379-MMAE: anti-HER3 antibody CDX3379 with 4 MMAE per antibody via MC-VC-PABC linker, labeled with Cy5
tumor growth [1]: significant growth delay
tumor growth (tumor volume, Ki-67) [2]: further enhanced
Immune cell quantification: CD8+ (MOC2 tumors; MOC2 tumors, 2.5 nmoles drug on day 7, CyTOF on day 11, counts normalized to 2324 total events (percent of counts as in Supp. Fig. 8b), one value per tumor, untreated 0.26, 1.08, 0.73, 0.77): 0.86 and 0.95
Immune cell quantification: T regs (MOC2 tumors; MOC2 tumors, 2.5 nmoles drug on day 7, CyTOF on day 11, one value per tumor, untreated 0.52, 0.82, 0.90, 0.65): 1.64 and 1.12 and 1.68
CyTOF cell quantification, Immune cell quantification: B cells (MOC2 tumors; Tumor #1): 1.59
CyTOF cell quantification, Immune cell quantification: CD4+ (MOC2 tumors; Tumor #1): 3.49
CyTOF cell quantification, Immune cell quantification: Eosinophils (MOC2 tumors; Tumor #1): 19.75
CyTOF cell quantification, Immune cell quantification: M1 (MOC2 tumors; Tumor #1): 1.46
CyTOF cell quantification, Immune cell quantification: M-MDSC (MOC2 tumors; Tumor #1): 5.98
CyTOF cell quantification, Immune cell quantification: PMN-MDSC (MOC2 tumors; Tumor #1): 55.25
CyTOF cell quantification, Immune cell quantification: B cells (MOC2 tumors; Tumor #2): 0.69
CyTOF cell quantification, Immune cell quantification: CD4+ (MOC2 tumors; Tumor #2): 3.53
CyTOF cell quantification, Immune cell quantification: Eosinophils (MOC2 tumors; Tumor #2): 13.68
CyTOF cell quantification, Immune cell quantification: M1 (MOC2 tumors; Tumor #2): 0.69
CyTOF cell quantification, Immune cell quantification: M-MDSC (MOC2 tumors; Tumor #2): 5.25
CyTOF cell quantification, Immune cell quantification: PMN-MDSC (MOC2 tumors; Tumor #2): 63.34
CyTOF cell quantification, Immune cell quantification: B cells (MOC2 tumors; Tumor #3): 1.94
CyTOF cell quantification, Immune cell quantification: CD4+ (MOC2 tumors; Tumor #3): 1.98
CyTOF cell quantification, Immune cell quantification: Eosinophils (MOC2 tumors; Tumor #3): 11.88
CyTOF cell quantification, Immune cell quantification: M1 (MOC2 tumors; Tumor #3): 0.43
CyTOF cell quantification, Immune cell quantification: M-MDSC (MOC2 tumors; Tumor #3): 4.09
CyTOF cell quantification, Immune cell quantification: PMN-MDSC (MOC2 tumors; Tumor #3): 66.35
CyTOF cell quantification, Immune cell quantification: B cells (MOC2 tumors; Tumor #4): 2.11
CyTOF cell quantification, Immune cell quantification: CD4+ (MOC2 tumors; Tumor #4): 4.39
CyTOF cell quantification, Immune cell quantification: Eosinophils (MOC2 tumors; Tumor #4): 27.02
CyTOF cell quantification, Immune cell quantification: M1 (MOC2 tumors; Tumor #4): 0.47
CyTOF cell quantification, Immune cell quantification: M-MDSC (MOC2 tumors; Tumor #4): 2.54
CyTOF cell quantification, Immune cell quantification: PMN-MDSC (MOC2 tumors; Tumor #4): 51.89
Immune cell quantification: M2 (MOC2 tumors; mouse, in vivo): 1.20 and 2.19 and 1.25 and 1.42
tumor immune populations changed (CyTOF) (MOC2 tumors; orthotopic MOC2 tumors, single 2.5 nmole i.v. injection): regulatory T cells, dendritic cells and NK cells that were upregulated
